These results are taken from article PMC12015262 (Nature Communications, 2025).

Read-outs that look alike come from different tables or passages of the source. Where a SMILES comes first, the peptide text is derived from it. Bridges are numbered along the chain shown (N, C = ends).

Data set [1] can be described thus: Pharmacokinetic study, intravenous, male CD-1 mice. The format is in vivo.
Data set [2] concerns the target T1, recombinant human ETB receptor (Homo sapiens, UniProt P24530).
T1 sequence (P24530 27-442): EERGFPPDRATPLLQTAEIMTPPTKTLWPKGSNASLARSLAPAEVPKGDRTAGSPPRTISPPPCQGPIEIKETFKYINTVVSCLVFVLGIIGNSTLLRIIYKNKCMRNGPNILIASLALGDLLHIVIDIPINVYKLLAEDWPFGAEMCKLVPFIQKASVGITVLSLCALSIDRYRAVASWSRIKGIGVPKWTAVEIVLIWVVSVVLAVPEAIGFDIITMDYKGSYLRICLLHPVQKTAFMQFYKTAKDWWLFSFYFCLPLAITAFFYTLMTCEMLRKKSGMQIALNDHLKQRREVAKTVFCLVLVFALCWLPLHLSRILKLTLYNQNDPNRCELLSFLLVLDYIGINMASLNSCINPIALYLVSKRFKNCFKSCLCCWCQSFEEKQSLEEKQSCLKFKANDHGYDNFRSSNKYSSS
The format is binding. The note with it: Discussion.

Data set [3] deals with wild-type ETB. Conditions: previous study; cited from earlier work.
For data set [4] the following is noted: human, s9.
The conditions of data set [5]: mouse, s9.
Data set [6] deals with T2, human recombinant ETAR (Homo sapiens, UniProt P25101).
T2 sequence (P25101 21-427): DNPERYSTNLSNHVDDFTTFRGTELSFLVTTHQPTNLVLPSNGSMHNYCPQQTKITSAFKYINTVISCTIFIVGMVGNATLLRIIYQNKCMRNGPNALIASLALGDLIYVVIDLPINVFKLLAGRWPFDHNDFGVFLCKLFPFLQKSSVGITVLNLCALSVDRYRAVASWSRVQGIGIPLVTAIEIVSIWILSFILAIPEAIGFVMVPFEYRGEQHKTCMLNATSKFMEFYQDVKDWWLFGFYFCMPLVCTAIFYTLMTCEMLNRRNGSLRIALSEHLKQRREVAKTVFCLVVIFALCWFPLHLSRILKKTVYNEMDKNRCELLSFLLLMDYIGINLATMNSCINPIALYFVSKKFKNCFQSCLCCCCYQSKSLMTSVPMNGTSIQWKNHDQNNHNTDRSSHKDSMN
Conditions: competition binding.

The target of data set [7] is human endothelin type B receptor (ETB), in membranes of CHO cells (human) (UniProt P24530). The data set is described as follows: radioligand binding.

As for `CCCC[C@@H](NC(=O)[C@@H](Cc1cn(C(=O)OC)c2ccccc12)NC(=O)[C@H](CC(C)(C)C)NC(=O)N1[C@H](C)CCC[C@@H]1C)C(=O)O` [BQ-788, Dmpc-γ-MeLeul-D-Trp(1-CO2CH3)-D-Nle-OH, reference compound], in data set [1] (same experiment, IV, mice), the “half-life compared with RES-701-3” value is given as “nearly tenfold lower half-life”.
Consider `Cc1cc(C)cc(C(=O)N(C)[C@H](Cc2ccc(-c3ccccc3)cc2)C(=O)N[C@@H](Cc2c[nH]c3ccccc23)C(=O)O)c1` [IRL2500], for which the “selectivity for ETB (ETB/ETA)” value in data set [2] is given as 50 ×.
On to `COc1ccccc1Oc1c(NS(=O)(=O)c2ccc(C(C)(C)C)cc2)nc(-c2ncccn2)nc1OCCO` [Bosentan], for which, in data set [3], the “effect on receptor activation level of wild-type ETB” value is reported as “does not change the receptor activation level”.
For orientation: half-life means the time in which the quantity being followed falls by half. Read a high half-life as slow decline. As for `C[C@@H](O)[C@@H]1NC(=O)CNC(=O)[C@H](Cc2c[nH]cn2)NC(=O)[C@H](Cc2c[nH]c3ccccc23)NC(=O)[C@H](CC(N)=O)NC(=O)CNC(=O)C[C@@H](C(=O)N[C@@H](Cc2c[nH]c3ccccc23)C(=O)N[C@@H](Cc2ccccc2)C(=O)N[C@@H](Cc2ccccc2)C(=O)N[C@@H](CC(N)=O)C(=O)N[C@@H](Cc2ccc(O)cc2)C(=O)N[C@@H](Cc2ccc(O)cc2)C(=O)N[C@@H](Cc2c[nH]c3ccccc23)C(=O)O)NC(=O)[C@@H]2CCCN2C(=O)[C@H](CO)NC1=O` [RES-701-3] (GNWHGTSPDWFFNYYW-OH; lactam N-9 (inferred)), the half-life was above 6 h in data set [4]; above 6 h in data set [5]; above 6 h in data set [1] (mouse, in vivo, iv, 3 mg/kg, t1/2, 3 mg/kg IV, male CD-1 mice). For the same molecule, in data set [6], the “activity against ETA” value is “no activity”.
The molecule RES-701-3 T6E (peptide) showed a fold reduction of affinity against RES-701-3 in data set [7] of 50 fold.
